Like-named read-outs stand apart in the source and are kept apart here.
Assays:
TK6 cells = test system: TK6 cells
Method: These articles have been recommended for use in the OECD test guideline (Test No. 487)[49]. For metabolic activation, pre-cultured TK6 cells with the culture medium were supplemented with Sprague–Dawley rat liver mix (S9 mix, IEDA TRADING CORPORATION, Japan) at 3.33 vol%. Then, compound was mixed with the cell suspension and treated under the following treatment conditions: • Short-term treatment for 3 h without S9 mix, followed by a 21-h culture (−S9 mix assay), • Short-term treatment for 3 h with S9 mix, followed by a 21-h culture (+S9 mix assay), or • Continuous treatment for 24 h without S9 mix (24-h assay). For treatment conditions 1 and 2, the cells in each well were centrifuged after the 3-h treatment, the supernatants were discarded, and the cells were washed twice with culture medium. The cells were further cultured with fresh culture medium for 21 h. The compound-treated cells were examined by the unaided eye for precipitation of compound at the start and end of treatment. After treatment, the rest of each cell suspension was centrifuged and then the cells were suspended in a 0.075 mol/L KCl solution at room temperature for 10 min. Then, 25 vol% acetic acid containing methanol was added and the centrifuged cells were fixed. The fixed cells were resuspended in a small amount of 3 vol% acetic acid containing methanol, which was changed two times by centrifugation. Finally, a drop of the cell suspension was transferred onto a slide and dried at room temperature. The slides were stained at room temperature in a 3 vol% Giemsa solution (Merck KGaA) diluted with Sörensen phosphate buffer (1/15 mol/L, pH 6.8, Muto Pure Chemicals Co. Ltd.). Four slides per dose (2 slides per well) were prepared. Each slide was coded randomly. The test was conducted at the following doses of TEC-1. -S9 mix assay: 1.5, 1.7, 1.9, 2.1, 2.3, 2.5, 2.7, 2.9, and 3.1 µg/mL, + S9 mix assay: 1.9, 2.1, 2.3, 2.5, 2.7, 2.9, 3.1, 3.3, and 3.5 µg/mL, 24-h assay: 0.9, 1.1, 1.3, 1.5, 1.7, 1.9, 2.1, 2.3, and 2.5 µg/mL. To perform scoring for compound and negative control groups, the number of cells in the suspensions was counted using a Coulter Counter (Z2; Beckman Coulter, Inc.). The positive control groups were not determined. A portion (0.5 mL) of the cell suspension was diluted with 20 mL of Isoton II, and 0.5 mL of this solution was used for cell counts. The cell number per 1 mL at each culture was calculated by the following formula. Cellnumber/mL=Dilutionfactor×valueof1stcount+valueof2ndcount/2×2
The population doubling (PD) and relative population doubling (RPD) at each concentration was calculated by the following formula. PD=log10cell number at the end of culture/cell number at the start of treatment∗/log102∗:1×10^5cells/mL.
RPD%=PD of the compound-treated group/PD of the negative control group×100 For the treated groups, the 3 consecutive concentrations were selected as follows. […] For all concentrations, 4000 mononuclear cells with cytoplasm were analyzed and the number of cells with micronucleus (micronuclei) was counted using a microscope (× 600). Micronucleus is identified as a round or oval small nucleus in the cytoplasm with the same staining intensity as the main nucleus. The diameter of each micronucleus should be less than 1/2 of the diameter of the main nucleus. Two investigators observed the slides. Each investigator scored 1000 cells for the frequency of micronucleated cells. Data from the two investigators were combined for each culture and the combined data from duplicate cultures were pooled for each concentration for each treatment condition. A cell having one or more micronuclei was recorded as a micronucleated cell.

SMNΔ7 mice = assay: murine model of SMA (SMNΔ7 mice): survival, body weight, righting reflex; type: in vivo, mouse; settings: for SMA mice that survived / survivors at P65 / total mice: 20 mg/kg; for survivors at P65 / total mice: SMA mice
Method: A pair of heterozygous SMNΔ7 mice[28] (mSmn+/−, SMN2+/+, SMNΔ7+/+) were purchased from Jackson Laboratory (USA, stock number 005025). The homozygous SMNΔ7 mice (affected and referred to as “SMNΔ7 mice”; mSmn−/−, SMN2+/+, SMNΔ7+/+) was generated by cross-bleeding of heterozygous SMNΔ7 mice. All experiments were approved and monitored by the animal experiment committee of Gifu Pharmaceutical University and were performed after approval by the Bioethics and Biosafety Committee of Gifu Pharmaceutical University. All procedures relating to animal care and treatment confirmed to animal care guidelines issued by the National Institutes of Health.
SMNΔ7 mice were treated with 2, 6, and 20 mg/kg TEC-1 (succinate) once a day by intraperitoneal injection (TERUMO, Japan) from P2 to P23. TEC-1 was diluted in 0.9% NaCl (aqueous) for intraperitoneal injection. After P24, TEC-1 was administrated one a day orally using 0.4 × 0.7 mm feeding needle (Primetech Corporation, Japan). For oral administration, TEC-1 was diluted in distilled water (Otsuka Pharmaceutical Factory, Japan). Heterozygous mice received equal volumes of vehicle.
Survival and body weight were assessed daily. Righting reflex test[15] tests were performed […] at P6, 11 and 16. Righting time was defined as the time it took a pup to turn over to its front after being placed completely on its back (maximum 60 s). Dead individuals were set to 60 s.

SMN2 splicing = assay: qPCR of SMN transcripts in GM03813 cells exposed to TEC-1 and nusinersen; type: cell-based, human; settings: GM03813, 24 h
Method: Transient transfection of GM03813 fibroblasts with nusinersen (final concentration 100 nM) was performed using Lipofectamine 2000. Cells were seeded 6 h prior to transfection at a density of 5 × 10^3 cells/well in 96-well plate. Transfection was performed according to manufacturer’s instructions. Cells were co-incubated either 0.1% DMSO or with TEC-1 at the concentration of 0.03, 0.1, 0.3, 1, and 3 µM for 24 h.

Cc1cn2nc(-c3nc4ccc(N5CCN(C)CC5)cc4c(=O)[nH]3)cc2c(C)n1 [TEC-1, 2-(4,6-dimethylpyrazolo[1,5-a]pyrazin-2-yl)-6-(4-methylpiperazin-1-yl)quinazolin-4(3H)-one]
micronucleus induction, overall conclusion (TK6 cells): do not induce micronucleation
concentration at which precipitation was noted (TK6 cells; 24-h assay condition, culture medium): ≥ 1500 ng/mL
concentration at which cytotoxicity (RPD of less than 50%) was noted (TK6 cells; human, 3 h): ≥ 2300 ng/mL
Micronucleated cells (%) (TK6 cells; human, 3 h, 1.9 µg/mL): (0.73) %
Micronucleated cells Total (TK6 cells; human, 3 h, 1.9 µg/mL): 29
Micronucleated cells Well 1 (TK6 cells; human, 3 h, 1.9 µg/mL): 13
Micronucleated cells Well 2 (TK6 cells; human, 3 h, 1.9 µg/mL): 16
Relative population doubling (TK6 cells; human, 3 h, 1.9 µg/mL): 68.6%
Micronucleated cells (%) (TK6 cells; human, 3 h, 2.1 µg/mL): (0.9) %
Micronucleated cells Total (TK6 cells; human, 3 h, 2.1 µg/mL): 36
Micronucleated cells Well 1 (TK6 cells; human, 3 h, 2.1 µg/mL): 16
Micronucleated cells Well 2 (TK6 cells; human, 3 h, 2.1 µg/mL): 20
Relative population doubling (TK6 cells; human, 3 h, 2.1 µg/mL): 65.4%
Micronucleated cells (%) (TK6 cells; human, 3 h, 2.3 µg/mL): (1.4) **^,## %
Micronucleated cells Total (TK6 cells; human, 3 h, 2.3 µg/mL): 56
Micronucleated cells Well 1 (TK6 cells; human, 3 h, 2.3 µg/mL): 29
Micronucleated cells Well 2 (TK6 cells; human, 3 h, 2.3 µg/mL): 27
Relative population doubling (TK6 cells; human, 3 h, 2.3 µg/mL): 35.0%
Micronucleated cells (%) (TK6 cells; human, 24 h, 1.1 µg/mL): (0.85) %
Micronucleated cells Total (TK6 cells; human, 24 h, 1.1 µg/mL): 34
Micronucleated cells Well 1 (TK6 cells; human, 24 h, 1.1 µg/mL): 21
Micronucleated cells Well 2 (TK6 cells; human, 24 h, 1.1 µg/mL): 13
Relative population doubling (TK6 cells; human, 24 h, 1.1 µg/mL): 81.7%
Micronucleated cells (%) (TK6 cells; human, 24 h, 1.3 µg/mL): (0.73) %
Micronucleated cells Total (TK6 cells; human, 24 h, 1.3 µg/mL): 29
Micronucleated cells Well 1 (TK6 cells; human, 24 h, 1.3 µg/mL): 17
Micronucleated cells Well 2 (TK6 cells; human, 24 h, 1.3 µg/mL): 12
Relative population doubling (TK6 cells; human, 24 h, 1.3 µg/mL): 74.4%
Micronucleated cells (%) (TK6 cells; human, 24 h, 1.5 µg/mL): (0.8) %
Micronucleated cells Total (TK6 cells; human, 24 h, 1.5 µg/mL): 32
Micronucleated cells Well 1 (TK6 cells; human, 24 h, 1.5 µg/mL): 17
Micronucleated cells Well 2 (TK6 cells; human, 24 h, 1.5 µg/mL): 15
Relative population doubling (TK6 cells; human, 24 h, 1.5 µg/mL): 69.5%
righting reflex latency compared to vehicle-treated mice (SMNΔ7 mice; 2 mg/kg, P16): significantly shortened latency time
SMA mice that survived (SMNΔ7 mice; administered intraperitoneally throughout): 66%
SMA mice that survived (SMNΔ7 mice; oral administration after weaning): 40%
body mass compared to vehicle-treated SMNΔ7 mice (SMNΔ7 mice; 2, 6, 20 mg/kg once a day): increased body mass
survival compared with vehicle-treated SMNΔ7 mice (SMNΔ7 mice; 2, 6, 20 mg/kg once a day, Kaplan–Meier to P65): enhanced the survival
survivors at P65 / total mice (SMNΔ7 mice; 20 mg/kg once daily (i.p. P2-P23, then p.o.)): 4 of 10
survivors at P65 / total mice (SMNΔ7 mice; 20 mg/kg once daily (i.p.-i.p.), TEC-1 succinate): 2 of 3
survival until weaning (SMNΔ7 mice; all SMA model mice, 20 mg/kg intraperitoneally): survived until weaning
effect on the activity of nusinersen (SMN2 splicing; TEC-1 at 1 and 3 µM with nusinersen 100 nM): significantly enhanced the effects of nusinersen
effect on the activity of nusinersen (SMN2 splicing; low concentrations of TEC-1 with nusinersen 100 nM): did not inhibit the effects of nusinersen
